Data taken from ChEMBL document CHEMBL4842345, “Design, synthesis and biological evaluation of tanshinone IIA-based analogues: Potent inhibitors of microtubule formation and angiogenesis” (Eur J Med Chem, 2021).
Activity calls are given as the source filed them. The rule behind the calls is not given here.

Tests used:
[1] = biological target: Tubulin (Homo sapiens) (UniProt P68371+Q9H4B7+P0DPH7+P68366+Q13509+Q71U36+P04350+Q3ZCM7+P07437+P68363+Q9BQE3+Q6PEY2+Q13885+Q9BVA1+Q9BUF5); assay: Induction of microtubule distruption in human A549 cells assessed as spindle shaped microtubule structure at 2.5 to 10 uM measured after 48 hrs by immunofluorescence based laser scanning confocal microscopic analysis; type: cell-based; settings: dose 2.5-10 µM
[2] = test system: A549; assay: Induction of apoptosis in human A549 cells assessed as dead cells at 5 uM measured after 48 hrs by Annexin V-FITC/PI staining based flow cytometry analysis (Rvb= 0.67%); type: functional
[3] = test system: MGC-803; assay: Antiproliferative activity against human MGC-803 cells assessed as reduction in cell viability measured after 72 hrs by MTT assay; type: functional, cell-based; settings: MGC-803, 72 h
[4] = test system: A549; assay: Induction of apoptosis in human A549 cells assessed as late apoptotic cells at 5 uM measured after 48 hrs by Annexin V-FITC/PI staining based flow cytometry analysis (Rvb= 1.47%); type: functional
[5] = test system: HUVEC; assay: Inhibition of cell migration in HUVEC cells assessed as decrease in closure of wound scratching measured after 48 hrs by wound healing assay; type: functional, cell-based; settings: Homo sapiens, dose 0.25-1 µM
[6] = test system: A549; assay: Induction of apoptosis in human A549 cells assessed as live cells at 2.5 uM measured after 48 hrs by Annexin V-FITC/PI staining based flow cytometry analysis (Rvb= 97.1%); type: functional
[7] = test system: HUVEC; assay: Antivascular activity against HUVEC cells assessed as segment length measured after 6 hrs by imaging analysis; type: functional, cell-based; settings: Homo sapiens, dose 0.25-1 µM
[8] = test system: A549; assay: Induction of apoptosis in human A549 cells assessed as early apoptotic cells at 2.5 uM measured after 48 hrs by Annexin V-FITC/PI staining based flow cytometry analysis (Rvb= 0.72%); type: functional
[9] = test system: HeLa; assay: Antiproliferative activity against human HeLa cells assessed as reduction in cell viability measured after 72 hrs by MTT assay; type: functional, cell-based
[10] = test system: A549; assay: Antiinvasive activity in human A549 cells assessed as decrease in number of migrated A549 cells at 0.5 to 2 uM measured after 48 hrs by crystal violet staining based transwell assay; type: functional, cell-based; settings: dose 0.5-2 µM
[11] = test system: A549; assay: Induction of apoptosis in human A549 cells assessed as early apoptotic cells at 5 uM measured after 48 hrs by Annexin V-FITC/PI staining based flow cytometry analysis (Rvb= 0.72%); type: functional
[12] = test system: HUVEC; assay: Antiinvasive activity in HUVEC cells assessed as decrease in cell invasion at 0.25 to 1 uM measured after 48 hrs by crystal violet staining based transwell assay; type: functional; settings: Homo sapiens, dose 0.25-1 µM
[13] = test system: A549; assay: Induction of apoptosis in human A549 cells assessed as dead cells at 10 uM measured after 48 hrs by Annexin V-FITC/PI staining based flow cytometry analysis (Rvb= 0.67%); type: functional
[14] = test system: A549; assay: Induction of cell cycle arrest in human A549 cells assessed as accumulation of cells at S phase at 5 uM measured after 48 hrs by flow cytometry analysis (Rvb= 24.5%); type: functional
[15] = test system: A549; assay: Induction of apoptosis in human A549 cells assessed as late apoptotic cells at 2.5 uM measured after 48 hrs by Annexin V-FITC/PI staining based flow cytometry analysis (Rvb= 1.47%); type: functional
[16] = test system: A549; assay: Induction of apoptosis in human A549 cells assessed as dead cells at 2.5 uM measured after 48 hrs by Annexin V-FITC/PI staining based flow cytometry analysis (Rvb= 0.67%); type: functional

With COc1ccc2c(c1)-c1occ(C)c1C(=O)C2=O the Activity [1] was “inactive”, the Activity [2] was 1.28% and the IC50 [3] was 840 nM. The Activity [4] was 5.58%, the inhibition [5] was “Dose-Dependent Effect” and the Activity [6] was 94.5%. For the same molecule, the Activity [7] was “Dose-Dependent Effect”, the Activity [8] was 1.55% and the IC50 [9] was 280 nM. The Activity [10] was “Active”, the Activity [11] was 10.3% and the Activity [12] was “Active”. The Activity [13] was 0.5%, the Activity [14] was 25.26% and the Activity [15] was 3.28%. For the same molecule, the Activity [16] was 0.68%.
